Where two headings read alike, the source gives them in different places.

In one test the target is PI3K (p110α subtype) (Bos taurus, UniProt P32871). Nature of the test: Inhibition of PI3K (p110α subtype). Type of test: biochemical. The note with it: bovine p110α from baculovirus expression system; PI substrate, [γ-32P] ATP, 37°C for 15 minutes. Here is the method: Test Example 1 Inhibition of PI3K (p110α subtype)
Inhibition was determined using enzyme (bovine p110α) prepared in the baculovirus expression system. Bovine p110 was prepared according to a modification from the method by I. Hiles et al., Cell, 70, 419 (1992). Each compound to be assayed was dissolved in DMSO and the obtained 10 mM DMSO solution was serially diluted with DMSO.
The compound (0.5µl) to be assayed and enzyme were mixed in 25µl of buffer solution (40 mM Tris-HCl (pH 7.4), 200 mM NaCl, 2 mM dithiothreitol, 5 mM MgCl2). Then, 25µl of 5 mM Tris-HCl (pH 7.4) buffered solution supplemented with 10µg PI (Sigma), 2µ Ci [γ-^32P] ATP (Amersham Pharmacia) and 80µM nonradiolabeled ATP (Sigma) was added to the mixture to initiate the reaction. After reacting at 37°C for 15 minutes, 200µl of 1M HCl and 400µl of CHCl3 / MeOH (1 : 1) were added to the reaction mixture. The resulting mixture was stirred and then centrifuged. After the organic layer was again extracted twice with 150µl of MeOH / 1M HCl (1 : 1). The radioactivity was measured using Cerenkov light.

In the next test the test system is HCT116 cells. Nature of the test: Colon cancer cell growth inhibition (Alamar Blue). The conditions noted are these: HCT116 colon cancer cell line, incubation over 72 hours; result in words. It counts as cell-based. As for the experimental part: Test Example 2 Colon cancer cell growth inhibition
HCT116 cells from a colon cancer cell line were cultured in McCoy's 5A medium (GIBCO) supplemented with 10% fetal bovine serum. HCT116 cells were inoculated on a 96 well plate (5000 cells/well) followed by overnight incubation. The test compound diluted with the medium was added to the medium in a final concentration of […] (final DMSO concentration, 1%). After incubation over 72 hours, Alamar Blue reagent was added to the medium. Two hours after the addition, a ratio of fluorescent intensity at an excitation wavelength of 530 nm to that at an emission wavelength of 590 nm was measured to determine the IC50. Co 14, Co 24, Co 25, Co 31, Co 46 and Co 47 of the present invention exerted an excellent cancer cell growth inhibition activity.
A general note: Alamar Blue is a resazurin reagent that responds to reducing activity.

Another test concerns A375 cells. Nature of the test: Melanoma cell growth inhibition (Alamar Blue). Type of test: cell-based. The note with it: Homo sapiens. As for the experimental part:
A375 cells from a melanoma cell line were cultured in DMEM medium (GIBCO) supplemented with 10% fetal bovine serum. A375 cells at 10,000 cells/100µl were added to a 96 well plate which contained 1µl/well of the test compounds (final concentration of 0.001 - 30µM). After incubation for over 46 hours, Alamar Blue reagent was added to the medium (10µl/well).

Setting [1] is: A-375, A375 melanoma cell line, incubation for over 46 hours, 0.001 - 30µM, range is stated for the group of ten compounds, read-out: IC50.

Sequence of PI3K (p110α subtype) (P32871 whole entry): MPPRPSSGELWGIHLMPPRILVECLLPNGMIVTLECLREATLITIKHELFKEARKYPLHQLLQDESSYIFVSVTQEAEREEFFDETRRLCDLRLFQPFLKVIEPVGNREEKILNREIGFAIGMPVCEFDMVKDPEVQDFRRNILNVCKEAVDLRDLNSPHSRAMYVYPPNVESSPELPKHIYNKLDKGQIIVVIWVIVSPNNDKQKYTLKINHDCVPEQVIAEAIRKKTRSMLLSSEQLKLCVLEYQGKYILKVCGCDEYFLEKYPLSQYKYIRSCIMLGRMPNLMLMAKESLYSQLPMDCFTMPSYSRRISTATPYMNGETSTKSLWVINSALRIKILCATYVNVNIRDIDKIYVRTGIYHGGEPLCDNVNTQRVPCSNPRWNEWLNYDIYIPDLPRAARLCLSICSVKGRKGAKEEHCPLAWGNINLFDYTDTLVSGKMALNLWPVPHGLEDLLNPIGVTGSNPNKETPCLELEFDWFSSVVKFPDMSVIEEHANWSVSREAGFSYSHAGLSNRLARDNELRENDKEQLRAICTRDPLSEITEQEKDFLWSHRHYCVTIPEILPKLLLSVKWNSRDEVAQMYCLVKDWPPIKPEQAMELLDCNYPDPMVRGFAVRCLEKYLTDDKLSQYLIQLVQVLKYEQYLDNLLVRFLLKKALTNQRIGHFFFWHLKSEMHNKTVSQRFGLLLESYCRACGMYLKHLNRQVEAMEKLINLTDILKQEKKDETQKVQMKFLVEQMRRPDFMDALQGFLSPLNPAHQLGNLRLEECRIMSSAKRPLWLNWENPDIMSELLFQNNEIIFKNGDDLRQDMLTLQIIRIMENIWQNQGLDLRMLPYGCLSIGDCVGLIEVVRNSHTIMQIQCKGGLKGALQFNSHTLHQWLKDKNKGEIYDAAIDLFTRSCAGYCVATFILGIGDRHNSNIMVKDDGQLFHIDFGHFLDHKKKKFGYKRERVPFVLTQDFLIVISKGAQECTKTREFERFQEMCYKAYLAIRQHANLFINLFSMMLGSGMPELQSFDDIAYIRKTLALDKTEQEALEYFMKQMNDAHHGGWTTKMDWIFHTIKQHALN

With `O=C(Nc1cccc(-c2nc(N3CCOCC3)c3oc4ncccc4c3n2)c1)c1ccccn1` [Co 10], the concentration for half-maximal inhibition (IC50) – broadly, the concentration needed to halve the response being measured – on PI3K (p110α subtype) is < 1 µM. Take `Nc1ccc(C(=O)Nc2cccc(-c3nc(N4CCOCC4)c4oc5ncccc5c4n3)c2)cn1` [Co 17, 6-amino-3'-.(4-morpholinopyrido[3',2':4,5]furo[3,2-d]pyrimidin-2-yl)nicotinanilide]: the IC50 against PI3K (p110α subtype) is < 1 µM. In the case of `CC(=O)Nc1cccc(-c2nc(N3CCOCC3)c3oc4ncccc4c3n2)c1` [Co 24], in the test with HCT116 cells, the “cancer cell growth inhibition activity” value is “excellent”. In addition, the IC50 against PI3K (p110α subtype) was < 1 µM. For the compound `Nc1ccc(-c2nc(N3CCOCC3)c3oc4ncccc4c3n2)cc1` [Co 33, 4-(4-morpholinopyrido[3',2':4,5]furo[3,2-d]pyrimidin-2-yl)aniline], in the test on A375 cells (setting [1]), the IC50 lay in the range of 0.33 to 4.26 µM. As for `Oc1cccc(-c2nc(N3CCOCC3)c3oc4ncccc4c3n2)c1` [Co 50, 3-(4-morpholinopyrido[3',2':4,5]furo[3,2-d]pyrimidin-2-yl)phenol], the IC50 in the test with A375 cells (A-375, 46 h) was 0.33 to 4.26 µM.

Consider `c1cc(OCCN2CCNCC2)cc(-c2nc(N3CCOCC3)c3oc4ncccc4c3n2)c1` [Co 69, 4-morpholino-2-[3-(2-piperazin-1-ylethoxy)phenyl]pyrido[3',2':4,5]furo[3,2-d]pyrimidine], for which the IC50 in the test on A375 cells (setting [1]) was 0.33 to 4.26 µM. Consider `Oc1cccc(-c2nc(N3CCOCC3)c3cnccc3n2)c1` [Co 164, 3-(4-morpholinopyrido[4,3-d]pyrimidin-2-yl)phenol], for which the IC50 in the test with A375 cells (setting [1]) lay within 0.33 to 4.26 µM. On the same count and under the same terms, the figure for `Oc1cccc(-c2nc(N3CCOCC3)c3ncccc3n2)c1` [Co 172, 3-(4-morpholinopyrido[3,2-d]pyrimidin-2-yl)phenol] is 0.33 to 4.26 µM. On the same count and under the same terms, the value for `Oc1cccc(-c2nc(N3CCOCC3)c3ccncc3n2)c1` [Co 174, 3-(4-morpholinopyrido[3,4-d]pyrimidin-2-yl)phenol] was 0.33 to 4.26 µM; that for `COc1ccc2nc(-c3cccc(O)c3)nc(N3CCOCC3)c2c1` [Co 186, 3-(6-methoxy-4-morpholinoquinazolin-2-yl)phenol] was 0.33 to 4.26 µM. For the compound `Oc1cccc(-c2nc(N3CCOCC3)c3sccc3n2)c1` [Co 190, 3-(4-morpholinothieno[3,2-d]pyrimidin-2-yl)phenol], the IC50 in the test with A375 cells (setting [1]) is 0.33 to 4.26 µM. Still for that read-out and setting: the value for `Oc1cccc(-c2nc(N3CCOCC3)c3nccnc3n2)c1` [Co 191, 3-(4-morpholinopteridin-2-yl)phenol] was 0.33 to 4.26 µM.

(Values after patent publication EP1277738B1, “CONDENSED HETEROARYL DERIVATIVES” (Astellas Pharma Inc., priority 2000, dated 2001).)
